Active and inactive are the calls of the source. No rule for the calls is given here.
Tested on: CCRIS mutagenicity, Ames/micronucleus/aberration tests
Experiment: CCRIS mutagenicity studies
[1] = Test System: AMES SALMONELLA TYPHIMURIUM, Strain/Indicator: TA98, Metabolic Activation: NONE, Method: PREINCUBATION
[2] = Test System: AMES SALMONELLA TYPHIMURIUM, Strain/Indicator: TA100, Metabolic Activation: NONE, Method: PREINCUBATION

In the case of O=C(O)Cc1ccc(Cl)cc1, the mutagenic call [1] is reported as “inactive; negative”, the mutagenic call (Test System: AMES SALMONELLA TYPHIMURIUM, Strain/Indicator: TA98, Metabolic Activation: RAT LIVER S-9, PCB, Method: PREINCUBATION) is reported as “inactive; negative” and the mutagenic call [2] is reported as “inactive; negative”. For the same compound, the mutagenic call (Test System: AMES SALMONELLA TYPHIMURIUM, Strain/Indicator: TA100, Metabolic Activation: RAT LIVER S-9, PCB, Method: PREINCUBATION) was “inactive; negative”, the mutagenic call (Test System: AMES SALMONELLA TYPHIMURIUM, Strain/Indicator: TA104, Metabolic Activation: NONE, Method: PREINCUBATION) was “inactive; negative” and the mutagenic call (Test System: AMES SALMONELLA TYPHIMURIUM, Strain/Indicator: TA104, Metabolic Activation: RAT LIVER S-9, PCB, Method: PREINCUBATION) was “inactive; negative”. For the same compound, the mutagenic call (Test System: E.COLI, Strain/Indicator: WP2 UVRA, Metabolic Activation: NONE, Method: PREINCUBATION) was “inactive; negative” and the mutagenic call (Test System: E.COLI, Strain/Indicator: WP2 UVRA, Metabolic Activation: RAT LIVER S-9, PCB, Method: PREINCUBATION) was “inactive; negative”.

In the case of c1ccc2scnc2c1, the mutagenic call (Test System: MOUSE LYMPHOMA, Strain/Indicator: L5178Y (TK+/TK-), Metabolic Activation: NONE, Method: SUSPENSION/PLATE) is reported as “inactive; negative. reevaluation of results: negative” and the mutagenic call (Test System: MOUSE LYMPHOMA, Strain/Indicator: L5178Y (TK+/TK-), Metabolic Activation: RAT, LIVER, S-9, AROCLOR 1254, Method: SUSPENSION/PLATE) is reported as “inactive; negative. reevaluation of results: negative”.

With CCCCCC(=O)Cc1cc(O)cc2c1C(=O)Oc1cc(O)c(C(=O)O)c(CCCCC)c1O2 the mutagenic call [1] was “inactive; negative”, the mutagenic call (Test System: AMES SALMONELLA TYPHIMURIUM, Strain/Indicator: TA98, Metabolic Activation: NONE, Method: STANDARD PLATE) was “inactive; negative” and the mutagenic call (Test System: AMES SALMONELLA TYPHIMURIUM, Strain/Indicator: TA98, Metabolic Activation: RAT, LIVER, S-9, Method: PREINCUBATION) was “inactive; negative”. For the same compound, the mutagenic call (Test System: AMES SALMONELLA TYPHIMURIUM, Strain/Indicator: TA98, Metabolic Activation: RAT, LIVER, S-9, Method: STANDARD PLATE) was “inactive; negative”, the mutagenic call [2] was “inactive; negative” and the mutagenic call (Test System: AMES SALMONELLA TYPHIMURIUM, Strain/Indicator: TA100, Metabolic Activation: NONE, Method: STANDARD PLATE) was “inactive; negative”. For the same compound, the mutagenic call (Test System: AMES SALMONELLA TYPHIMURIUM, Strain/Indicator: TA100, Metabolic Activation: RAT, LIVER, S-9, Method: PREINCUBATION) was “inactive; negative” and the mutagenic call (Test System: AMES SALMONELLA TYPHIMURIUM, Strain/Indicator: TA100, Metabolic Activation: RAT, LIVER, S-9, Method: STANDARD PLATE) was “inactive; negative”.

For [Br][Pt-2]([Br])([Br])([Br])([Br])[Br], the mutagenic call [1] was “inactive; negative”, the mutagenic call (Test System: AMES SALMONELLA TYPHIMURIUM, Strain/Indicator: TA98, Metabolic Activation: RAT, LIVER, S-9, AROCLOR 1254, Method: PREINCUBATION) was “inactive; negative” and the mutagenic call [2] was “inactive; negative”. For the same compound, the mutagenic call (Test System: AMES SALMONELLA TYPHIMURIUM, Strain/Indicator: TA100, Metabolic Activation: RAT, LIVER, S-9, AROCLOR 1254, Method: PREINCUBATION) was “inactive; negative”.

For CC(C)(Cl)[N+](=O)[O-], the mutagenic call (Test System: AMES SALMONELLA TYPHIMURIUM, Strain/Indicator: TA98, Metabolic Activation: HAMSTER, LIVER, S-9, AROCLOR 1254 (30%), Method: PREINCUBATION) was “inactive; negative”, the mutagenic call [1] was “inactive; negative” and the mutagenic call (Test System: AMES SALMONELLA TYPHIMURIUM, Strain/Indicator: TA98, Metabolic Activation: RAT, LIVER, S-9, AROCLOR 1254 (30%), Method: PREINCUBATION) was “inactive; negative”. For the same compound, the mutagenic call (Test System: AMES SALMONELLA TYPHIMURIUM, Strain/Indicator: TA100, Metabolic Activation: HAMSTER, LIVER, S-9, AROCLOR 1254 (30%), Method: PREINCUBATION) was “inactive; negative”, the mutagenic call [2] was “active; positive” and the mutagenic call (Test System: AMES SALMONELLA TYPHIMURIUM, Strain/Indicator: TA100, Metabolic Activation: RAT, LIVER, S-9, AROCLOR 1254 (30%), Method: PREINCUBATION) was “inactive; negative”. The mutagenic call (Test System: AMES SALMONELLA TYPHIMURIUM, Strain/Indicator: TA1535, Metabolic Activation: HAMSTER, LIVER, S-9, AROCLOR 1254 (30%), Method: PREINCUBATION) was “inactive; negative”, the mutagenic call (Test System: AMES SALMONELLA TYPHIMURIUM, Strain/Indicator: TA1535, Metabolic Activation: NONE, Method: PREINCUBATION) was “inactive; negative” and the mutagenic call (Test System: AMES SALMONELLA TYPHIMURIUM, Strain/Indicator: TA1535, Metabolic Activation: RAT, LIVER, S-9, AROCLOR 1254 (30%), Method: PREINCUBATION) was “inactive; negative”. The mutagenic call (Test System: AMES SALMONELLA TYPHIMURIUM, Strain/Indicator: TA1538, Metabolic Activation: HAMSTER, LIVER, S-9, AROCLOR 1254 (30%), Method: PREINCUBATION) was “inactive; negative”, the mutagenic call (Test System: AMES SALMONELLA TYPHIMURIUM, Strain/Indicator: TA1538, Metabolic Activation: NONE, Method: PREINCUBATION) was “inactive; negative” and the mutagenic call (Test System: AMES SALMONELLA TYPHIMURIUM, Strain/Indicator: TA1538, Metabolic Activation: RAT, LIVER, S-9, AROCLOR 1254 (30%), Method: PREINCUBATION) was “inactive; negative”.

O=C(O)Cc1c[nH]c2ccc(O)cc12 was tested, and the mutagenic call [2] was “inactive; negative”.
